Literature values, collected in patent US20240122955A1, “ORAL DELIVERY” (GUANGZHOU DAZHOU BIOMEDICINE LTD., priority 2021, published 2024).

Experiments:
SGLT2 = target: T1, SGLT2 (Homo sapiens, UniProt P31639); conditions: among the three FDA approved drugs canagliflozin, dapagliflozin, empagliflozin
T1 sequence (P31639 1-672): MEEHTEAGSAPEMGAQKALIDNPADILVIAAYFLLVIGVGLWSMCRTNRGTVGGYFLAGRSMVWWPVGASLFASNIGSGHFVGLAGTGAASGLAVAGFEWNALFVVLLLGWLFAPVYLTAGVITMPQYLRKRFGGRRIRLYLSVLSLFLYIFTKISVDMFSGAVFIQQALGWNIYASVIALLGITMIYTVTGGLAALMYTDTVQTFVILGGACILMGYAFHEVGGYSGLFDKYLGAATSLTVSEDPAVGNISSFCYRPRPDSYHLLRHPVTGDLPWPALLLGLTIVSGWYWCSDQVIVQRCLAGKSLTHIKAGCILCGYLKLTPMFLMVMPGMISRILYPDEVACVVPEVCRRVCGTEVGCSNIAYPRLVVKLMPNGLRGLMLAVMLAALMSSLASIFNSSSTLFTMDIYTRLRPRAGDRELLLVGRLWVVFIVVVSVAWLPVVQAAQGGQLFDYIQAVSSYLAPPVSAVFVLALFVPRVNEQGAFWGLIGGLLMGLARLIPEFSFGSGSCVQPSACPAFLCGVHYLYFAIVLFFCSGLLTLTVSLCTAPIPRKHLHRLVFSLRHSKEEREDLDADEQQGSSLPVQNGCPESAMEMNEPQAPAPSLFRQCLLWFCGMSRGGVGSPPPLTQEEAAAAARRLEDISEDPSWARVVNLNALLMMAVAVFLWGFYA

[1] = T2D patients with high risk of cardiovascular disease events, versus the placebo group

Structure (SMILES)	selectivity for SGLT2 compared to SGLT1 (SGLT2)	relative risk reduction in death from cardiovascular causes [1] [%]
Cc1ccc([C@@H]2O[C@H](CO)[C@@H](O)[C@H](O)[C@H]2O)cc1Cc1ccc(-c2ccc(F)cc2)s1 [canagliflozin]	least selective	
OCC1O[C@@H](c2ccc(Cl)c(Cc3ccc(O[C@@H]4CCOC4)cc3)c2)C(O)C(O)[C@@H]1O (stereo partly drawn) [empagliflozin]	greatest selectivity	38
